# Measurements from ChEMBL document CHEMBL1165948, “The scope of thallium nitrate oxidative cyclization of chalcones; synthesis and evaluation of isoflavone and aurone analogs for their inhibitory activity against interleukin-5” (Bioorg Med Chem, 2010).
# Molecular target: T1, Interleukin-5 (Mus musculus) (UniProt P04401)
# T1 sequence (whole entry): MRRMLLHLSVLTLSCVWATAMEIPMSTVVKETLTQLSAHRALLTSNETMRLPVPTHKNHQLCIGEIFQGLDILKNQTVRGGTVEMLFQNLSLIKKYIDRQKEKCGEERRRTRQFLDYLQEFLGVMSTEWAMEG
# Test: Inhibition of IL5-mediated proliferation of mouse Y16 cells at 50 uM by WST1 assay
# Format: cell-based
row,inhibition,SMILES
1,5.7%,O=C1/C(=C/c2ccc([N+](=O)[O-])cc2)Oc2cccc(OCC3CCCCC3)c21
2,12.2%,O=C1/C(=C/c2ccc(Cl)cc2)Oc2cccc(OCC3CCCCC3)c21
3,91.7%,O=c1c(-c2ccc(O)cc2)coc2cccc(OCC3CCCCC3)c12
4,15.6%,COc1ccc(-c2coc3cccc(OCC4CCCCC4)c3c2=O)c(OC)c1
5,3.1%,O=C1/C(=C/c2ccccc2)Oc2cccc(OCC3CCCCC3)c21
6,> 100%,COc1cc(-c2coc3cccc(OCC4CCCCC4)c3c2=O)cc(OC)c1OC
7,15.4%,COc1ccc(-c2coc3cccc(OCC4CCCCC4)c3c2=O)cc1
8,9.7%,CCc1ccc(-c2coc3cccc(OCC4CCCCC4)c3c2=O)cc1
9,99.8%,COc1cc(-c2coc3cccc(OCC4CCCCC4)c3c2=O)ccc1OCc1ccccc1
10,10.5%,COCOc1ccc(-c2coc3cccc(OCC4CCCCC4)c3c2=O)cc1
11,30.6%,COc1ccc(-c2coc3cccc(OCC4CCCCC4)c3c2=O)cc1OC
12,3.5%,COC(=O)c1ccc(/C=C2\Oc3cccc(OCC4CCCCC4)c3C2=O)cc1
13,15.7%,COc1cc(-c2coc3cccc(OCC4CCCCC4)c3c2=O)ccc1O
14,92.1%,O=c1c(-c2ccc(O[C@@H]3O[C@H](CO)[C@@H](O)[C@H](O)[C@H]3O)cc2)coc2cc(O)cc(O)c12
15,3.8%,CCc1ccc(/C=C2\Oc3cccc(OCC4CCCCC4)c3C2=O)cc1
16,8%,O=Cc1ccc(/C=C2\Oc3cccc(OCC4CCCCC4)c3C2=O)cc1
